In US11752122B2 (OKLAHOMA MEDICAL RESEARCH FOUNDATION, priority 2018, dated 2023):
“Also recorded” adds a separate entry of the source. Read-outs that look alike come from different tables or passages of the source.

Key:
LDLR mice on HFD = conditions: for WSS (wall shear stress) / fractional valve opening: LDLR mice on HFD, vs untreated control mice
From the text: Mice. Hypercholesterolemic mice deficient for low-density lipoprotein receptors (Ldlr−/−), which only express ApoB-100 (Ldlr−/−Apob100/100, LDLR), were obtained from Jackson Laboratories (B6; 129SLdlrtm1HerApobtm2Sgy/J, stock no. 003000). WT C57bl/6 mice were also obtained from the Jackson Laboratory (stock no. 000664) and served as controls. TGF-β1^platelet-KO-LDLR mice (Pf4Cre+Tgfb1f/f;Ldlr−/−Apob100/100;) and TGF-β1^flox-LDLR littermate controls (Tgfb1f/f;Ldlr−/−Apob100/100) were generated by crossing LDLR mice with Pf4Cre+;Tgfb1f/f mice, as shown in FIGS. 7A-B and Supplemental Table 5. […] The inventor crossed Tie2Cre mice (stock no. 008863, Jackson Laboratories) with tdTomato lox-stop-lox mice (stock no. 007909, Jackson Laboratories) to generate Tie2Cre;tdTomato mice that express tdTomato only under Cre activity. All mice were housed in a controlled environment (23±2° C.; 12 hours light/dark cycles) and fed either a chow diet (CD) (PicoLab® Rodent Diet 20, 5053) or a customized high fat diet (HFD) (Harlan Teklad, TD.9612102. containing 21% milk fat (MF), 1.25% Cholesterol) in powdered form in a glass jar with perforated metal strainer (DYETS, Braintree Scientific Inc.). The Oklahoma Medical Research Foundation's Institutional Animal Care and Usage Committee approved all procedures.
Experimental Design. A total of 118 LDLR (58 Males, 60 Females) and 20 WT mice (10 Males, 10 Females) were used for this study. Half of the mice (6 weeks old) were switched to HFD and maintained for up to 9 months. Progression and severity (mild/moderate/severe) of AS were monitored at 0, 3, 6 and 9 months by echocardiography using non-invasive ultrasound imaging techniques. Five mice per cage (total of 25 males, 15 females) were treated with 2% N-acetylcysteine (NAC) (Acros Organics, 160280010) in drinking water. NAC was prepared in reverse osmosis water and its pH was adjusted to 7.4 with NaOH. Water was replaced with a fresh solution every week.
Echocardiography. Mice were anesthetized with Isoflurane (3-5% inhalation) in an induction chamber. Mice that appeared to be sick due to severe stenosis or that were underweight were anesthetized using a lower isoflurane level to prevent adverse or lethal effects from the anesthetic. Once visibly anesthetized, isoflurane was reduced to 0.5%-2% and the mouse was moved from the chamber to a nose-cone on a heated platform set at 40° C. to maintain body temperature (35±2° C.). Heavier mice were maintained at higher isoflurane levels as they appeared less sensitive to its anesthetic effects. All four limbs were taped to physiological electrodes and a rectal temperature probe was inserted. Electrode gel was used to enhance the physiologic readings. To ensure accuracy of all echo measurements, physiological parameters were monitored and recordings were only taken if the heart rate was 430-550 beats per minute, respiration was 20-100 breaths per minute, and body temperature was close to 37° C. (35±2° C.).
Measurement of AS parameters using a modified view of ultrasound imaging. Echocardiography is the gold standard non-invasive method to measure AS in humans. However, the mouse heart rate is 10-times faster (500 to 600 beats per minute), making the acquisition of high-resolution images of the very thin non-diseased valves challenging. […] LVOT was measured from the long-axis view and was used to calculate AV pressure and normalize the cusp separation (Lindman et al., 2016; Meyer et al., 2012). This view was obtained by tilting the lower left corner of the platform downward by about 30° and angling the transducer up such that it interfaced with the chest cavity by about 45°.

[1] = IV formulations; cited from earlier work
[2] = cited from earlier work
TGF-β1 = biological target: T1, TGF-β1 (Mus musculus, UniProt P04202); assay: Shear-dependent TGF-β1 activation in platelet-rich plasma from NAC-treated mice (ELISA); type: in vivo; conditions: PRP from NAC-treated vs control mice, shear force of 1,800 s^−1 for 2 hours, ELISA (FIG. 4A)
T1 construct: Active TGF-β1 levels in platelet-rich plasma from NAC-treated (n=6) and -untreated (n=8) mice after in vitro stirring; from tissue; host or cells: mouse platelet-rich plasma (blood)

[3] = test system: TGF-β1platelet-KO-LDLR mice on HFD; assay: Aortic stenosis progression in TGF-β1platelet-KO-LDLR mice on HFD, echocardiography; type: in vivo; conditions: TGF-β1platelet-KO-LDLR mice on HFD treated with NAC
From the text: Mice. Hypercholesterolemic mice deficient for low-density lipoprotein receptors (Ldlr−/−), which only express ApoB-100 (Ldlr−/−Apob100/100, LDLR), were obtained from Jackson Laboratories (B6; 129SLdlrtm1HerApobtm2Sgy/J, stock no. 003000). WT C57bl/6 mice were also obtained from the Jackson Laboratory (stock no. 000664) and served as controls. TGF-β1^platelet-KO-LDLR mice (Pf4Cre+Tgfb1f/f;Ldlr−/−Apob100/100;) and TGF-β1^flox-LDLR littermate controls (Tgfb1f/f;Ldlr−/−Apob100/100) were generated by crossing LDLR mice with Pf4Cre+;Tgfb1f/f mice, as shown in FIGS. 7A-B and Supplemental Table 5. […]
Experimental Design. […] Progression and severity (mild/moderate/severe) of AS were monitored at 0, 3, 6 and 9 months by echocardiography using non-invasive ultrasound imaging techniques. […]
Echocardiography. […] Electrode gel was used to enhance the physiologic readings. To ensure accuracy of all echo measurements, physiological parameters were monitored and recordings were only taken if the heart rate was 430-550 beats per minute, respiration was 20-100 breaths per minute, and body temperature was close to 37° C. […]
Measurement of AS parameters using a modified view of ultrasound imaging. […] LVOT was measured from the long-axis view and was used to calculate AV pressure and normalize the cusp separation (Lindman et al., 2016; Meyer et al., 2012). […]

[4] = test system: ascending aortic constriction (AAC) model; assay: Cardiac fibrosis in ascending aortic constriction (AAC) model; type: in vivo, mice; conditions: high shear pressure overload AAC model, NAC treatment (data not shown)
From the text: Ascending Aortic Constriction. Ascending aortic constriction was induced by controlled constriction of the ascending aorta as described previously 26. Briefly, mice were anesthetized with 1.5% isoflurane and the ascending aorta was surgically exposed by a mid-thorax incision. A 2 7-0 suture was placed around both the aorta and an adjacent 27-gauge (0.41 mm OD) needle proximal to the origin of the innominate artery. […] Mice were sacrificed and tissues collected 1 month after the surgery.

[5] = LDLR HFD + NAC (2-5 Months), total n=8
[6] = LDLR HFD + NAC (3-5 Months), total n=11
[7] = LDLR HFD + NAC (5-6 Months), total n=7

T1 sequence (P04202 30-278 limits assumed): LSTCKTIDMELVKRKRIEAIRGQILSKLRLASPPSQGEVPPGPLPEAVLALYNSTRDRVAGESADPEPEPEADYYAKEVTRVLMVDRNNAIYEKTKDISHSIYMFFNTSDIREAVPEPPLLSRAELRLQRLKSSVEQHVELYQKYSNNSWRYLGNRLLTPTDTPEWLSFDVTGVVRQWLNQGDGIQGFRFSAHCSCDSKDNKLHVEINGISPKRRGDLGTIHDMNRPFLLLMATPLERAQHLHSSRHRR
T1 sequence (P04202 279-390 limits assumed): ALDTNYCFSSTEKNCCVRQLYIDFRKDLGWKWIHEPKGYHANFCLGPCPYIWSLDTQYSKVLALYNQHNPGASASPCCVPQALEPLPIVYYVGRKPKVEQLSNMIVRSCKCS
T1 sequence (Q8CG19 24-1712 partner): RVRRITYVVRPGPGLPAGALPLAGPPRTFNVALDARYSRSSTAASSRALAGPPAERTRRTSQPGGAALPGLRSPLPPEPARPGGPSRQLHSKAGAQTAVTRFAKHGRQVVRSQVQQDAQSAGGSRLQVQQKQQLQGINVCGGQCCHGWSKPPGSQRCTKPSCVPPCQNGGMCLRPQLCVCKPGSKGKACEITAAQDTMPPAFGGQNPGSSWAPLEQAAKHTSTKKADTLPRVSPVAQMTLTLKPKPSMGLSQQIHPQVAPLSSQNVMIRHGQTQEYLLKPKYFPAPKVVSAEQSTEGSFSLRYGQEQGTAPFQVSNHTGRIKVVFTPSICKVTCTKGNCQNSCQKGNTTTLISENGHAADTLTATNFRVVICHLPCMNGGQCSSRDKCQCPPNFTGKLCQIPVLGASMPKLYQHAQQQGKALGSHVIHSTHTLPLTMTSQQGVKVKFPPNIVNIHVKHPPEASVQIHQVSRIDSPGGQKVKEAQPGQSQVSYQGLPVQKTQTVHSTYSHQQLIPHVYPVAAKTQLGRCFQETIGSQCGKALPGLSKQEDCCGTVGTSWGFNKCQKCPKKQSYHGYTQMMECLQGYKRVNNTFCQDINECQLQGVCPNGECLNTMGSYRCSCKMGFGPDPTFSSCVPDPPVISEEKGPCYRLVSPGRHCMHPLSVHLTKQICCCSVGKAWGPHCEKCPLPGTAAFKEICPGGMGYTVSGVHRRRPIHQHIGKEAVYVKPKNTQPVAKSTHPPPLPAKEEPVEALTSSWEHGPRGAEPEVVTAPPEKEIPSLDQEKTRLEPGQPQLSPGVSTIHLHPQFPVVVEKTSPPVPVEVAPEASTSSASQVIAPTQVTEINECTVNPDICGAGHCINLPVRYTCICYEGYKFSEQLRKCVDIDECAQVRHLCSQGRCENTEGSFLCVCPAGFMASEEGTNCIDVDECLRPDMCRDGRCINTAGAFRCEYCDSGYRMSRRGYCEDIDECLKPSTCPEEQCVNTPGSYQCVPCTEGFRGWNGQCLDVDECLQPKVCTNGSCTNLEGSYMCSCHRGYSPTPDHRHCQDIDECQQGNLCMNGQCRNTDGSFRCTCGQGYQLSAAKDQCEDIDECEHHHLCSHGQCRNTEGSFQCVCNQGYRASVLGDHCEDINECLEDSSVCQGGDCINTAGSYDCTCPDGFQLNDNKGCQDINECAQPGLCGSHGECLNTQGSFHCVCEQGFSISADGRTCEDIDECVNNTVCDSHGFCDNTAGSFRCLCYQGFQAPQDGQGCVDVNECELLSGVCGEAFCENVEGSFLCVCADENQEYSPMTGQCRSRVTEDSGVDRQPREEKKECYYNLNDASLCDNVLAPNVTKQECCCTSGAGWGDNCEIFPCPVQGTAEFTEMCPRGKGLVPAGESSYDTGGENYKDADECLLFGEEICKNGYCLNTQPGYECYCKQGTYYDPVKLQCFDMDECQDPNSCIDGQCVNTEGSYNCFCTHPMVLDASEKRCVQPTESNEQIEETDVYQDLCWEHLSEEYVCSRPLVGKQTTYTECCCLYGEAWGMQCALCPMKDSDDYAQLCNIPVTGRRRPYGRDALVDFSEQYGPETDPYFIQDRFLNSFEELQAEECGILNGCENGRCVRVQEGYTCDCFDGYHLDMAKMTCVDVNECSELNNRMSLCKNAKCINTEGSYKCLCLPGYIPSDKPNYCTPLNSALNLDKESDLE

For `CC(=O)N[C@@H](CS)C(=O)O` [NAC, N-acetylcysteine], the “Penetrance, fractional valve opening: Mild Stenosis 0.75-0.85, number of mice” value (LDLR mice on HFD; [5]) was 1, the “Penetrance, fractional valve opening: Mild Stenosis 0.75-0.85, percent of mice” value (LDLR mice on HFD; [5]) was “(12%)” and the “Penetrance, fractional valve opening: Moderate Stenosis 0.6-0.75, number of mice” value (LDLR mice on HFD; [5]) was 2. The “Penetrance, fractional valve opening: Moderate Stenosis 0.6-0.75, percent of mice” value (LDLR mice on HFD; [5]) was “(25%)”, the “Penetrance, fractional valve opening: No Stenosis >0.85, number of mice” value (LDLR mice on HFD; [5]) was 0 and the “Penetrance, fractional valve opening: No Stenosis >0.85, percent of mice” value (LDLR mice on HFD; [5]) was “(0%)”. The “Penetrance, fractional valve opening: Severe Stenosis <0.6, number of mice” value (LDLR mice on HFD; [5]) was 5, the “Penetrance, wall shear stress: Mild Stenosis 350-525 dyn/cm^2, number of mice” value (LDLR mice on HFD; [5]) was 0 and the “Penetrance, wall shear stress: Mild Stenosis 350-525 dyn/cm^2, percent of mice” value (LDLR mice on HFD; [5]) was “(0%)”. The “Penetrance, wall shear stress: Moderate Stenosis 525-700 dyn/cm^2, number of mice” value (LDLR mice on HFD; [5]) was 3, the “Penetrance, wall shear stress: Moderate Stenosis 525-700 dyn/cm^2, percent of mice” value (LDLR mice on HFD; [5]) was “(37%)” and the “Penetrance, wall shear stress: No Stenosis <350 dyn/cm^2, number of mice” value (LDLR mice on HFD; [5]) was 0. For the same molecule, the “Penetrance, wall shear stress: No Stenosis <350 dyn/cm^2, percent of mice” value (LDLR mice on HFD; [5]) was “(0%)”, the “Penetrance, wall shear stress: Severe Stenosis >700 dyn/cm^2, number of mice” value (LDLR mice on HFD; [5]) was 6 and the “Penetrance, wall shear stress: Severe Stenosis >700 dyn/cm^2, percent of mice” value (LDLR mice on HFD; [5]) was “(63%)”. The “Penetrance, fractional valve opening: Mild Stenosis 0.75-0.85, number of mice” value (LDLR mice on HFD; [6]) was 2, the “Penetrance, fractional valve opening: Mild Stenosis 0.75-0.85, percent of mice” value (LDLR mice on HFD; [6]) was “(16%)” and the “Penetrance, fractional valve opening: Moderate Stenosis 0.6-0.75, number of mice” value (LDLR mice on HFD; [6]) was 7. For the same molecule, the “Penetrance, fractional valve opening: Moderate Stenosis 0.6-0.75, percent of mice” value (LDLR mice on HFD; [6]) was “(64%)”, the “Penetrance, fractional valve opening: No Stenosis >0.85, number of mice” value (LDLR mice on HFD; [6]) was 0 and the “Penetrance, fractional valve opening: No Stenosis >0.85, percent of mice” value (LDLR mice on HFD; [6]) was “(0%)”. The “Penetrance, fractional valve opening: Severe Stenosis <0.6, number of mice” value (LDLR mice on HFD; [6]) was 2, the “Penetrance, fractional valve opening: Severe Stenosis <0.6, percent of mice” value (LDLR mice on HFD; [6]) was “(18%)” and the “Penetrance, wall shear stress: Mild Stenosis 350-525 dyn/cm^2, number of mice” value (LDLR mice on HFD; [6]) was 4. The “Penetrance, wall shear stress: Mild Stenosis 350-525 dyn/cm^2, percent of mice” value (LDLR mice on HFD; [6]) was “(36%)”, the “Penetrance, wall shear stress: Moderate Stenosis 525-700 dyn/cm^2, number of mice” value (LDLR mice on HFD; [6]) was 5 and the “Penetrance, wall shear stress: Moderate Stenosis 525-700 dyn/cm^2, percent of mice” value (LDLR mice on HFD; [6]) was “(46%)”. The “Penetrance, wall shear stress: No Stenosis <350 dyn/cm^2, number of mice” value (LDLR mice on HFD; [6]) was 0, the “Penetrance, wall shear stress: No Stenosis <350 dyn/cm^2, percent of mice” value (LDLR mice on HFD; [6]) was “(0%)” and the “Penetrance, wall shear stress: Severe Stenosis >700 dyn/cm^2, number of mice” value (LDLR mice on HFD; [6]) was 2. The “Penetrance, wall shear stress: Severe Stenosis >700 dyn/cm^2, percent of mice” value (LDLR mice on HFD; [6]) was “(18%)”, the “Penetrance, fractional valve opening: Mild Stenosis 0.75-0.85, number of mice” value (LDLR mice on HFD; [7]) was 3 and the “Penetrance, fractional valve opening: Mild Stenosis 0.75-0.85, percent of mice” value (LDLR mice on HFD; [7]) was “(43%)”. The “Penetrance, fractional valve opening: Moderate Stenosis 0.6-0.75, number of mice” value (LDLR mice on HFD; [7]) was 4, the “Penetrance, fractional valve opening: Moderate Stenosis 0.6-0.75, percent of mice” value (LDLR mice on HFD; [7]) was “(57%)” and the “Penetrance, fractional valve opening: No Stenosis >0.85, number of mice” value (LDLR mice on HFD; [7]) was 0. The “Penetrance, fractional valve opening: No Stenosis >0.85, percent of mice” value (LDLR mice on HFD; [7]) was “(0%)”, the “Penetrance, fractional valve opening: Severe Stenosis <0.6, number of mice” value (LDLR mice on HFD; [7]) was 0 and the “Penetrance, fractional valve opening: Severe Stenosis <0.6, percent of mice” value (LDLR mice on HFD; [7]) was “(0%)”. For the same molecule, the “Penetrance, wall shear stress: Mild Stenosis 350-525 dyn/cm^2, number of mice” value (LDLR mice on HFD; [7]) was 3, the “Penetrance, wall shear stress: Mild Stenosis 350-525 dyn/cm^2, percent of mice” value (LDLR mice on HFD; [7]) was “(43%)” and the “Penetrance, wall shear stress: Moderate Stenosis 525-700 dyn/cm^2, number of mice” value (LDLR mice on HFD; [7]) was 4. The “Penetrance, wall shear stress: Moderate Stenosis 525-700 dyn/cm^2, percent of mice” value (LDLR mice on HFD; [7]) was “(57%)”, the “Penetrance, wall shear stress: No Stenosis <350 dyn/cm^2, number of mice” value (LDLR mice on HFD; [7]) was 0 and the “Penetrance, wall shear stress: No Stenosis <350 dyn/cm^2, percent of mice” value (LDLR mice on HFD; [7]) was “(0%)”. The “Penetrance, wall shear stress: Severe Stenosis >700 dyn/cm^2, number of mice” value (LDLR mice on HFD; [7]) was 0, the “Penetrance, wall shear stress: Severe Stenosis >700 dyn/cm^2, percent of mice” value (LDLR mice on HFD; [7]) was “(0%)” and the “WSS (wall shear stress)” value (LDLR mice on HFD; NAC months 3-5 (moderate AS)) was “improved”. For the same molecule, the fractional valve opening (LDLR mice on HFD; NAC months 3-5 (moderate AS)) was “improved”, the “WSS (wall shear stress)” value (LDLR mice on HFD; NAC months 5-6 (severe AS)) was “improved” and the fractional valve opening (LDLR mice on HFD; NAC months 5-6 (severe AS)) was “improved”. The “effect on AS” value (LDLR mice on HFD; long-term NAC treatment (1-6 months) (data not shown)) was “very little to no effect”, the “atherosclerotic plaque (adverse effect)” value (LDLR mice on HFD; mouse, in vivo) was “increased atherosclerotic plaque” and the “heart function (adverse effect)” value (LDLR mice on HFD; mouse, in vivo) was “deterioration of heart function”. The “mild to moderate AS progression” value (LDLR mice on HFD; short-term NAC treatment from 2-3 months (data not shown)) was “halted”, the “patients experiencing anaphylaxis reaction” value [1] was “Up to 18%” and the Urine excretion ([2]; in vivo) was 22-30%. For the same molecule, the metabolism ([2]; liver) was “extensively liver metabolized”, the “TGF-β1 activation (active TGF-β1 levels) in PRP” value (TGF-β1) was “much lower” and the AS progression [3] was “little to no further reduction; also recorded: did not show any effect”. The cardiac fibrosis [4] was “inhibits cardiac fibrosis”.
